# Values of other authors in patent US20020018777A1, “STERILIZATION OF VIRUS INFECTED PLASMA” (priority 1995, published 2002).
# Conditions: concentrated BPL, animals
compound,measurement,value
"O=C1CCO1 [BPL, β-propiolactone]",carcinogenicity,carcinogenic
